Reference: patent publication US5173486A, “Dibenz[b,f][1,4]oxazepin-11(10H)-ones for multidrug resistance reversing agents” (Bristol-Myers Squibb Company, priority 1991, dated 1992)
Values joined by “and” are separate entries in the source; they are usually repeats but may differ in a detail not shown here. Equal values may be shown once. Read-outs that look alike come from different tables or passages of the source. *1 amine or outer side, *2 acyl side, *3 side chain or, on linkers, in order; H or OH if unused. Where a SMILES comes first, the peptide text is derived from it. Bridges are numbered along the chain shown (N, C = ends). Roman numbers before positions name the chains, in order. [ ]: non-standard residue; d: D form. Actinocin(9to1) = Cc1c2oc3c(C)ccc(C(=O)[*:1])c3nc-2c(C(=O)[*:2])c(N)c1=O; NMeV = CN[C@H](C(=O)O)C(C)C; Sar = CNCC(=O)O

Experiments:
Type in all cases: cell-based
MCF-7 cells = assay: Cytotoxic assay, Adriamycin in sensitive human breast carcinoma MCF-7 cells; settings: MCF-7 (sensitive); ADR; no chemosensitizer; 2880 min
Procedure: (§1) Cell Culture: HCT116/VM46 cells were selected from human colon carcinoma HCT116 cell line for resistance to VM26 and MCF-7/ADR cells were selected from human breast carcinoma MCF-7 cell line for resistance to Adriamycin. […] The cell lines were grown in tissue culture flasks containing McCoy's A medium and 10% fetal bovine serum. Cells were maintained at 37° C. in a humidified atmosphere containing 5% CO2 and subcultured every 5 days.
(§2) Cytotoxic Assay: The cells were seeded in 96 well microtiter plates at 5×10^3 cells per well and allowed to grow for 24 hours at 37° C. Cells were then incubated with decreasing amounts of antitumor agents: Adriamycin (100 μM, maximal concentration) or actinomycin D (17.6 ng/ml), for MCF-7 and HCT-116 cells, respectively. Chemosensitizers were added at variable concentrations ranging from 0.08 μM to 40 μM. In parallel, verapamil was used as positive control at the same concentrations. After 48 hours of incubation, the cells were washed, fixed and stained with crystal violet. Absorbance was read by Molecular Devices' microtiter plate reader at the wavelength of 595nm. The IC50 value (50% inhibition of cell growth) was determined from relative survival rates resulted from two to three independent experiments. […]

MCF-7/ADR cells = assay: Cytotoxic assay, MDR reversing effects of chemosensitizers with Adriamycin in human breast carcinoma MCF-7 resistant cells; settings: for Fold Resistance: ADR; for IC50: read-out: ADR IC50
Procedure: as §1
(§3) Cytotoxic Assay: The cells were seeded in 96 well microtiter plates at 5×10^3 cells per well and allowed to grow for 24 hours at 37° C. Cells were then incubated with decreasing amounts of antitumor agents: Adriamycin (100 μM, maximal concentration) or actinomycin D (17.6 ng/ml), for MCF-7 and HCT-116 cells, respectively. Chemosensitizers were added at variable concentrations ranging from 0.08 μM to 40 μM. In parallel, verapamil was used as positive control at the same concentrations. After 48 hours of incubation, the cells were washed, fixed and stained with crystal violet. Absorbance was read by Molecular Devices' microtiter plate reader at the wavelength of 595nm. The IC50 value (50% inhibition of cell growth) was determined from relative survival rates resulted from two to three independent experiments. The term "fold resistance" was defined as the ratio of the IC50 for antitumor drug in the presence or absence of chemosensitizer in resistant cells divided by the IC50 for antitumor drug in its sensitive counterpart. This value provides an estimate of the apparent potency of each reversing agent in enhancing drug effect.

HCT116 cells = assay: Cytotoxic assay, actinomycin D in sensitive human colon carcinoma HCT116 cells; settings: no chemosensitizer
Procedure: as §1, §2

HCT-116/VM46 cells = assay: Cytotoxic assay, MDR reversing effects of chemosensitizers with actinomycin D in human colon carcinoma HCT-116 resistant cells; settings: for Fold Resistance: ActD; for ActD IC50: 48 hours
Procedure: as §1, §3

[1] = chemosensitizer 0.4 μM, IC50 ratio to sensitive HCT116

Question: For `COc1cccc2c1C(=O)c1c(O)c3c(c(O)c1C2=O)C[C@@](O)(C(=O)CO)C[C@@H]3O[C@H]1C[C@H](N)[C@H](O)[C@H](C)O1` [ADR, reference compound], which “Fold Resistance” value (MCF-7 cells) is on record?
Answer: The value was 1.

Question: What about the “Fold Resistance” value (MCF-7/ADR cells; no chemosensitizer, IC50 ratio to sensitive MCF-7, 2880 min) of the same compound?
Answer: Its value is 138.9.

Question: What about the IC50 (MCF-7/ADR cells; Homo sapiens, 48 h) of the same compound?
Answer: Its IC50 is 50 µM.

Question: `Cc1c2oc3c(C)ccc(C(=O)N[C@@H]4C(=O)N[C@H](C(C)C)C(=O)N5CCC[C@H]5C(=O)N(C)CC(=O)N(C)[C@@H](C(C)C)C(=O)O[C@@H]4C)c3nc-2c(C(=O)N[C@@H]2C(=O)N[C@H](C(C)C)C(=O)N3CCC[C@H]3C(=O)N(C)CC(=O)N(C)[C@@H](C(C)C)C(=O)O[C@@H]2C)c(N)c1=O` [ActD, reference compound] (I: T[dV]P[Sar][NMeV] / II: T[dV]P[Sar][NMeV]; ester I:1-I:C, II:1-II:C; linker I:N-II:N via Actinocin(9to1)) was tested. Which “Fold Resistance” value (HCT116 cells; ActD, 2880 min) did it give?
Answer: Its value is 1.0.

Question: What about the “ActD IC50” value (HCT116 cells; 48 hours) of the same compound?
Answer: Its value is 0.5 ng/mL.

Question: What about the “Fold Resistance” value (HCT-116/VM46 cells; no chemosensitizer, IC50 ratio to sensitive HCT116, 2880 min, 2880 min) of the same compound?
Answer: The value was 15.6 and 20.0.

Question: What does the source list for `CCN(CC)CCN1C(=O)c2cc(Cl)c(NC(=O)C(C)C)cc2Oc2cc(C(F)(F)F)ccc21` [Ii, N-[2-Chloro-10,11-dihydro-10-[2-(diethylamino)ethyl-11-oxo-7-(trifluoromethyl)dibenz[b.f]1,4]oxezpin-3-yl]-2-methylpropionamide]?
Answer: Fold Resistance (MCF-7/ADR cells; chemosensitizer 0.67 μM, IC50 ratio to sensitive MCF-7): 28.9; IC50 (MCF-7/ADR cells; chemosensitizer 0.67 μM, 48 hours): 10.4 µM; Fold Resistance (HCT-116/VM46 cells; [1]): 3.4; ActD IC50 (HCT-116/VM46 cells; chemosensitizer 0.4 μM): 1.7 ng/mL

Question: How did the “Fold Resistance” value (HCT-116/VM46 cells; [1]) turn out when `C=C(CC)C(=O)c1ccc(OCC(=O)Nc2cc3c(cc2Cl)C(=O)N(CCN(CC)CC)c2ccc(C(F)(F)F)cc2O3)c(Cl)c1Cl` [Io] was run?
Answer: The value was 3.6.

Question: What about the “ActD IC50” value (HCT-116/VM46 cells; chemosensitizer 0.4 μM) of the same compound?
Answer: Its value is 1.8 ng/mL.

Question: Which “Fold Resistance” value (HCT-116/VM46 cells; chemosensitizer 0.24 μM, IC50 ratio to sensitive HCT116) does the source give for `CCN(CC)CCN1C(=O)c2cc(Cl)c(NC(=O)C3CCCC3)cc2Oc2cc(C(F)(F)F)ccc21` [Ip] here?
Answer: The value was 3.4.

Question: What about the “ActD IC50” value (HCT-116/VM46 cells; chemosensitizer 0.24 μM) of the same compound?
Answer: The value was 1.7 ng/mL.
